{"source": "patent US11723957B2", "about": "“Compositions comprising relaxin and methods of use thereof” (Beth Israel Deaconess Medical Center, Inc., priority 2016, dated 2023)", "key": {"[1]": {"system": "rat shoulder contracture model (glenohumeral joint)", "assay": "ROM measurement in rat shoulder contracture model (Example 2)", "assay_type": "in vivo, Sprague Dawley rats", "details": "for Final ROM, Total ROM: 8 weeks follow-up; for Difference ROM (% Δ°), External ROM / Difference ROM (% Δ°), Internal ROM / Difference ROM (% Δ°), Total ROM: final versus baseline", "procedure": "On the approval of the Institutional Animal Care and Use Committee (IACUC) at Beth Israel Deaconess Medical Center, 20 Female Sprague Dawley rats (250-300 g, Charles River Laboratories, Inc., Wilmington, Mass., USA) were chosen for this study. Baseline ROM measurements were taken for both forelimbs of each rat prior to any surgical intervention. Torque measurements were recorded at […] (τINT) and 60° of external rotation (τOUT), totaling a full 160° range of motion (ROM) (FIG. 4, Panels B and C). These measurements were required as they indicate a baseline for normal torque necessary to achieve both rotations. The specific rotation angles were chosen under fluoroscopic guidance to ensure minimal scapular recruitment, while simultaneously allowing for maximum humeral rotation within the joint space. Each ROM measurement was repeated three times to ensure consistency. All measurements were also performed under anesthesia to prevent any active muscle activation from interfering with the passive capsular resistance. Induction of the rats was performed at 5% isoflurane inhalation, and maintenance was managed at a 2% isoflurane dose.\nAfter the baseline measurements and under anesthesia, 20 rats were subjected to the immobilization procedure as outlined in Example 1 and in Villa-Camacho et al., Journal of Shoulder and Elbow Surgery, 2015, 24(11):1809-16, to induce fibrosis. In short, an incision was created longitudinally on the left limb, perpendicular to the scapular spine, to expose both the scapula and humerus. A No. 2-0 Ethibond polyester suture (Ethicon, San Lorenzo, PR, USA) was used to immobilize the humerus to the scapula by passing two loops through the medial border of the scapula and against the humeral shaft (FIG. 4, Panel A). Care was taken to ensure that the sutures avoided critical vasculature, musculature, and nerves. Each rat was maintained under fixation for 8 weeks. After the eighth week, the suture fixations were removed, and the rats were randomly placed in four groups: (1) intra-articular relaxin, single dose (IAS) (n=5); (2) intra-articular relaxin, multiple doses (IAM) (n=5); (3) intravenous relaxin, multiple doses (IVM) (n=5); and (4) untreated surgical controls (n=5). The sample size was determined with a power of 0.80 and α=0.05 if a 10% increase in range of motion from contracture was to be expected.\nThe mechanical testing apparatus was assembled with four core components and controlled with a computer through custom-built software written on MATLAB 7.13.0.564 (The MathWorks, Inc., Natick, Mass., USA). Movement of the forelimb was mediated by a stepper motor controlled by a microcontroller (UNO R3; Arduino, Torino, Italy). The motor was then positioned axially with the reaction torque sensor (TFF400; FUTEK Advanced Sensor Technology, Inc., Irvine, Calif., USA), which measured torque and was utilized as an input feedback for the system. Along the same axis, the arm clamp and the 3-axis inclinometer (3DM-GX3-15; MicroStrain, Inc., Williston, Vt., USA) were attached on the sensing side of the torque sensor. The inclinometer also provided both positional feedback as well as angular measurements for the system. The entire assembly was positioned above the rat with the sensing plane parallel to the ground to ensure that gravity had little impact on the torque measurements (FIG. 4). The apparatus was programmed to move to a specified torque or angle for internal and external rotation for each rat. Plastic zip ties were used to secure the rat forelimb in the apparatus. Care was taken to prevent any injury, and the apparatus was programmed with an internal and external limit switch in the case the apparatus operated abnormally.\nImmediately after removal of the restraining sutures, relaxin was administered to the noncontrol group rats. […]"}, "[2]": {"system": "glenohumeral joint capsule and articular cartilage", "assay_type": "in vivo, Sprague Dawley rats", "description": "At the conclusion of the follow-up period, the rats were euthanized according to IACUC guidelines. The rats were weighed and then subjected to CO2 exposure for euthanasia, and further confirmed through a bilateral thoracotomy. The shoulders were bilaterally harvested by disarticulating the humerus from the ulna, and removing the scapula from the clavicle and thoracic cavity. Excess muscle tissue not immediately surrounding the glenohumeral joint capsule was removed. The excised shoulders were decalcified for two months in a solution of ethylenediaminetetraacetic acid (EDTA), which was changed every two to three days. Once decalcified, the shoulders were affixed in a solution of 10% formalin and then mounted in paraffin stacks for histological sectioning at the Beth Israel Deaconess Medical Center (BIDMC) Histology Core. These stacks were mounted so that coronal slicing could be obtained. The slices were stained with hematoxylin and eosin (H&E) and examined for any morphological changes. These slices were taken from a posterior region of humeral head to better find evidence of periarticular adhesions (Brue et al., Knee Surg. Sports Traumatol. Arthrosc., 2007, 15(8):1048-54; White et al., Radiographics, 2016, 36(3):824-39). Further slices, taken mid-coronally, were also stained with fibronectin antibodies paired with peroxidase to further examine fibrotic characteristics such as capsular thickening. Collagen III, α-smooth muscle actin, and other acute fibrotic markers were not chosen for analysis, since histologic sectioning would occur 4 months after contracture creation. The specimen chosen to undergo histological analysis were the surgical control group and the IAM group. The IAM group was chosen because this group received the highest and most frequent dose of relaxin, and was, therefore, the best candidate to showcase any morphologic changes due to relaxin administration. The contralateral shoulders from the surgical control group were used to model a healthy control shoulder for histologic comparisons."}, "[3]": {"system": "NIH 373 murine fibroblasts", "assay": "cAMP levels in fibroblasts exposed to relaxin", "assay_type": "cell-based", "details": "cultured NIH 373 murine fibroblasts exposed to relaxin", "procedure": "The activity of recombinant relaxin (RLN2) was validated by measuring upregulation in the production of cAMP, a secondary metabolite of the relaxin signaling pathway. Increases in cAMP lead to increased MMP expression and decreased collagen and TIMP expression. To validate the activity of RLN2, cultured NIH 373 murine fibroblasts were exposed to relaxin, and the resulting cAMP levels were measured."}, "[4]": {"details": "in vivo; cited from earlier work"}, "relaxin antibody": {"system": "relaxin antibody", "assay": "Antibody-based ELISA of PEGylated relaxin", "assay_type": "binding", "details": "Quantikine ELISA, six dilutions"}, "[5]": {"details": "IAM: intra-articular, multiple doses, final measurement"}, "[6]": {"details": "IAS: intra-articular, single dose, final measurement"}, "[7]": {"details": "IVM: intravenous, multiple doses, final measurement"}}, "note": "“And” between values parts separate entries of the source, which are not always exact repeats. Equal values may be shown once. “Also recorded” adds a separate entry of the source. No end group written: not given here."}
{"substance": "relaxin", "values": [{"measurement": "Treatment of shoulder contracture, overall result", "setting": "[1]; 5 intra-articular doses of 0.0005 mg over 10 days (total 0.0025 mg)", "result": "effective in treating shoulder contracture; also recorded: full recovery with increased ROM for 60 days"}, {"measurement": "ROM of healthy contralateral forelimbs / systemic joint laxity", "setting": "[1]; IAM, IAS and IVM groups", "result": "no significant change from baseline; also recorded: no systemic joint laxity was present"}, {"measurement": "Final ROM, Total ROM", "setting": "[1]; IAM: intra-articular, multiple doses (5 x 0.0005 mg every 2 days), final measurement", "result": "159.13 ± 6.97", "unit": "°"}, {"measurement": "Final ROM, External ROM", "setting": "[1]; [5]", "result": "60.27 ± 11.05", "unit": "°"}, {"measurement": "Final ROM, Internal ROM", "setting": "[1]; [5]", "result": "98.87 ± 10.63", "unit": "°"}, {"measurement": "Total ROM compared with surgical control group (statistics)", "setting": "[1]; IAM, final measurement, P<0.01", "result": "significantly improved when compared with the control group"}, {"measurement": "Total ROM compared with baseline measurements (statistics)", "setting": "[1]; IAM, final measurement, P=0.94", "result": "not statistically different from the baseline measurements"}, {"measurement": "Difference ROM (% Δ°), External ROM", "setting": "[1]; IAM", "result": 1.01, "unit": "%"}, {"measurement": "Difference ROM (% Δ°), Internal ROM", "setting": "[1]; IAM", "result": "−0.27", "unit": "%"}, {"measurement": "Difference ROM (% Δ°), Total ROM", "setting": "[1]; IAM", "result": 0.21, "unit": "%"}, {"measurement": "Final ROM, Total ROM", "setting": "[1]; IAS: intra-articular, single dose 0.0005 mg, final measurement", "result": "138.40 ± 15.34", "unit": "°"}, {"measurement": "Final ROM, External ROM", "setting": "[1]; [6]", "result": "63.13 ± 14.20", "unit": "°"}, {"measurement": "Final ROM, Internal ROM", "setting": "[1]; [6]", "result": "75.27 ± 15.62", "unit": "°"}, {"measurement": "Increase in total ROM compared with surgical control (statistics)", "setting": "[1]; IAS, final measurement", "result": "not found to be significant"}, {"measurement": "Restriction of total ROM compared with baseline", "setting": "[1]; IAS, final measurement", "result": "−21.72", "unit": "°"}, {"measurement": "Difference ROM (% Δ°), External ROM", "setting": "[1]; IAS", "result": 5.22, "unit": "%"}, {"measurement": "Difference ROM (% Δ°), Internal ROM", "setting": "[1]; IAS", "result": "−24.83", "unit": "%"}, {"measurement": "Difference ROM (% Δ°), Total ROM", "setting": "[1]; IAS", "result": "−13.57", "unit": "%"}, {"measurement": "Improvement in ROM over the surgical control group", "setting": "[1]; IAS, measurement immediately following day 0, P=0.025", "result": 11.87, "unit": "°"}, {"measurement": "Final ROM, Total ROM", "setting": "[1]; IVM: intravenous, multiple doses (5 x 0.17 mg every 2 days), final measurement", "result": "127.93 ± 16.35", "unit": "°"}, {"measurement": "Final ROM, External ROM", "setting": "[1]; [7]", "result": "54.67 ± 15.30", "unit": "°"}, {"measurement": "Final ROM, Internal ROM", "setting": "[1]; [7]", "result": "73.27 ± 10.35", "unit": "°"}, {"measurement": "Restriction of total ROM compared with baseline", "setting": "[1]; IVM, final measurement", "result": "−30.73", "unit": "°"}, {"measurement": "Difference ROM (% Δ°), External ROM", "setting": "[1]; IVM", "result": "−7.87", "unit": "%"}, {"measurement": "Difference ROM (% Δ°), Internal ROM", "setting": "[1]; IVM", "result": "−26.24", "unit": "%"}, {"measurement": "Difference ROM (% Δ°), Total ROM", "setting": "[1]; IVM", "result": "−19.42% and −19.37%"}, {"measurement": "Treatment of shoulder contracture, overall result", "setting": "[1]; single intra-articular injection of 0.0005 mg", "result": "ineffective"}, {"measurement": "Capsular adhesions, H&E stained sections", "setting": "[2]; IAM group, end of follow-up", "result": "lacked any apparent adhesions"}, {"measurement": "Capsular tissue thickness, fibronectin stain", "setting": "[2]; IAM group, end of follow-up", "result": "return to normal thickness in capsular tissue"}, {"measurement": "Peroxidase intensity (fibronectin stain) in and around capsular tissue", "setting": "[2]; IAM group, end of follow-up", "result": "reduction in peroxidase intensity"}, {"measurement": "Articular cartilage quality, OARSI grading system", "setting": "[2]; rat, in vivo", "result": "between a grade 1 and grade 2 level of osteoarthritis"}, {"measurement": "Fibrillation of the articular surface, H&E", "setting": "[2]; rat, in vivo", "result": "both superficial and deep fibrillation within the articular surface"}, {"measurement": "cAMP levels", "setting": "[3]", "result": "dose-dependent upregulation of cAMP levels"}, {"measurement": "Half-life", "setting": "[4]", "result": "about 2.5 hours"}]}
{"substance": "PEGylated relaxin: relaxin reacted with mPEG-SVA (2000 MW); product conjugated with two PEG chains (chain 1 QLYSALANKCCHVGCTKRSLARFC; chain 2 DSWMEEVIKLCGRELVRAQIAICGMSTWS; not fully specified (bridges); ends and bridges not checked)", "values": [{"measurement": "Recognition by the relaxin antibody", "setting": "relaxin antibody", "result": "recognized by the relaxin antibody"}]}
